According to US20240254087A1, “SELECTIVE, PARTIAL, AND ARRESTIN-BIASED 5-HT2A AGONISTS WITH UTILITY IN VARIOUS DISORDERS” (Saint Joseph's University, priority 2021, published 2024):

How the values were obtained:
5-HT2A [1] = molecular target: T1, 5-HT2A (Homo sapiens, UniProt P28223); test: Ca2+ flux assay, 5-HT2A; format: cell-based; design: expressed in transfected cells; settings: for EC50: 5-HT2A EC50, nM; for Emax: read-out: 5-HT2A Emax % 5-HT, Ca2+ flux
5-HT1A = molecular target: T2, 5-HT1A (Homo sapiens, UniProt P08908); test: Competitive radioligand binding (NIMH PDSP)
T2 sequence (P08908 1-422): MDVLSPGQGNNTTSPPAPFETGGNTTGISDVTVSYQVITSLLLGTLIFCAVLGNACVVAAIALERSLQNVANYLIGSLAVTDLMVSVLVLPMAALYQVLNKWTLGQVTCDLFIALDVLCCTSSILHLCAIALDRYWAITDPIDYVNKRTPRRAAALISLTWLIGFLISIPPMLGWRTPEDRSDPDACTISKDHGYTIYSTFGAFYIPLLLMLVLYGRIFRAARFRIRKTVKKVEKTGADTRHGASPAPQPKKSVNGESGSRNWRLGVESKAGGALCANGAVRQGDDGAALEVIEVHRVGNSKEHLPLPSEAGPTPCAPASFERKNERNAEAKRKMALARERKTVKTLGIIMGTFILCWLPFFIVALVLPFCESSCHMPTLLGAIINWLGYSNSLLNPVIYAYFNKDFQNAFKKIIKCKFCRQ

5-HT1D = 5-HT1D (Homo sapiens, UniProt P28221); test: Competitive radioligand binding (NIMH PDSP)
Chain of 5-HT1D (P28221 whole entry, species assumed): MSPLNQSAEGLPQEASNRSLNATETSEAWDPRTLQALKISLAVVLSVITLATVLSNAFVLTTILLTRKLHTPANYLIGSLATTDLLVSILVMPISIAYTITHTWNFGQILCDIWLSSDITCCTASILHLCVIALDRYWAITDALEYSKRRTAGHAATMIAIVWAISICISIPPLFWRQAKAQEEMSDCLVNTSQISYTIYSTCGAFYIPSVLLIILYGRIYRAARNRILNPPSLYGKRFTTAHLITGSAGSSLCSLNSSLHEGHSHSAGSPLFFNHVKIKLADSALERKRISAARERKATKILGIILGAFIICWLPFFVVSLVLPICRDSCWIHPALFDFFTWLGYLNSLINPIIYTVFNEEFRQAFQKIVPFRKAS

5-HT1e = 5-HT1e (Homo sapiens, UniProt P28566); test: Competitive radioligand binding (NIMH PDSP)
Chain of 5-HT1e (P28566 whole entry, species assumed): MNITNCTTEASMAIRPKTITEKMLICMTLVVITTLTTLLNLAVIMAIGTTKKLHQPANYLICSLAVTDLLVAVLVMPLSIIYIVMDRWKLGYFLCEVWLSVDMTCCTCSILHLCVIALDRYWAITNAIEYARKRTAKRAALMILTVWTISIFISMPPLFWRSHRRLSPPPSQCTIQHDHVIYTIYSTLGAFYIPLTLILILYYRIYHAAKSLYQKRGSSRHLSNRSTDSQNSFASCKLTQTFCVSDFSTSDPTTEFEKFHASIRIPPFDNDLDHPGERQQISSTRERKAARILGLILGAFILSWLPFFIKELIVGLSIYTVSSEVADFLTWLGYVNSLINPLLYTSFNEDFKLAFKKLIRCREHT

5-HT2A [2] = molecular target: T1, 5-HT2A; test: Competitive radioligand binding (NIMH PDSP)
5-HT1B = 5-HT1B (Homo sapiens, UniProt P28222); test: Competitive radioligand binding (NIMH PDSP)
Chain of 5-HT1B (P28222 whole entry, species assumed): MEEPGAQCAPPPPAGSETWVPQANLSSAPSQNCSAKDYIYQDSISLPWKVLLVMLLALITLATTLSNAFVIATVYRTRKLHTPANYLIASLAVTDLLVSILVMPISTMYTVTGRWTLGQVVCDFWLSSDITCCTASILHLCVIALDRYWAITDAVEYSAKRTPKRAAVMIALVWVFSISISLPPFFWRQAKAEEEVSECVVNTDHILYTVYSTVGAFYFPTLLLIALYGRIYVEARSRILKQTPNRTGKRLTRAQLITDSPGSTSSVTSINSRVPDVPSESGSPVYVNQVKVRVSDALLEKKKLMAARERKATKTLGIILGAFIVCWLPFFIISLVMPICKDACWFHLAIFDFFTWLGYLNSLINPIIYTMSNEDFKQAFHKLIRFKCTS

5-HT3 = molecular target: T3, 5-HT3 (Homo sapiens, UniProt P46098); test: Competitive radioligand binding (NIMH PDSP)
T3 sequence (P46098 24-478): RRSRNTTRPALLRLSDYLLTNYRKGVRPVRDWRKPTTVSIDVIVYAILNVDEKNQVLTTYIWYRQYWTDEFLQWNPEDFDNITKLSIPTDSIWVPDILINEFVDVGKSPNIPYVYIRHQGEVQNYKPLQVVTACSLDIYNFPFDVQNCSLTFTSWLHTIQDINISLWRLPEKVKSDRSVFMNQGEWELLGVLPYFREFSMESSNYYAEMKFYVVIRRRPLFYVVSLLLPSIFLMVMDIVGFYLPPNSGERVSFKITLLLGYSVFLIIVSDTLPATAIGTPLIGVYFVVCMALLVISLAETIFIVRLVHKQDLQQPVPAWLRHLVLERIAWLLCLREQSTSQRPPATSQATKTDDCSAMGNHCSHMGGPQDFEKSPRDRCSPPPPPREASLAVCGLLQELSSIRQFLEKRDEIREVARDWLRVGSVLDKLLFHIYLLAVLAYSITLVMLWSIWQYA
Outline: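 Compounds dissolved in DMSO were screened at 10,000 nM for displacement of the radioligand from each receptor. Those advanced to Ki determination were tested in triplicate on separate plates alongside a known ligand as positive control. 5-HT2A binding used [3H]-ketanserin with human receptor-expressing membranes.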

5-HT2C [3] = molecular target: T4, 5-HT2C (Homo sapiens, UniProt P28335); test: Competitive radioligand binding (NIMH PDSP); design: expressed in transfected cells
T4 sequence (P28335 33-458): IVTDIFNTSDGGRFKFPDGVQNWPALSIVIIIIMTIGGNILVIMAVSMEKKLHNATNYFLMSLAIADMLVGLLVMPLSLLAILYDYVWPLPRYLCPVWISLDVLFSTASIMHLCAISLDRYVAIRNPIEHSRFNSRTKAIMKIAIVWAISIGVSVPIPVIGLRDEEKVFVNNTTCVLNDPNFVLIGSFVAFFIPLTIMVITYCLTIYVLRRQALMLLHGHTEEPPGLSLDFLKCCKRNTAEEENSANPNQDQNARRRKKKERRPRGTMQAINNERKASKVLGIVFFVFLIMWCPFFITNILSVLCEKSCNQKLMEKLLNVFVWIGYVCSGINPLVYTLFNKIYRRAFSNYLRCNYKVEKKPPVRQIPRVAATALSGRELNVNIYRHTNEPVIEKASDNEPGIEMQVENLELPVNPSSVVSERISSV

5-HT2B [4] = molecular target: T5, 5-HT2B (Homo sapiens, UniProt P41595); test: Competitive radioligand binding (NIMH PDSP); design: expressed in transfected cells
T5 sequence (P41595 whole entry): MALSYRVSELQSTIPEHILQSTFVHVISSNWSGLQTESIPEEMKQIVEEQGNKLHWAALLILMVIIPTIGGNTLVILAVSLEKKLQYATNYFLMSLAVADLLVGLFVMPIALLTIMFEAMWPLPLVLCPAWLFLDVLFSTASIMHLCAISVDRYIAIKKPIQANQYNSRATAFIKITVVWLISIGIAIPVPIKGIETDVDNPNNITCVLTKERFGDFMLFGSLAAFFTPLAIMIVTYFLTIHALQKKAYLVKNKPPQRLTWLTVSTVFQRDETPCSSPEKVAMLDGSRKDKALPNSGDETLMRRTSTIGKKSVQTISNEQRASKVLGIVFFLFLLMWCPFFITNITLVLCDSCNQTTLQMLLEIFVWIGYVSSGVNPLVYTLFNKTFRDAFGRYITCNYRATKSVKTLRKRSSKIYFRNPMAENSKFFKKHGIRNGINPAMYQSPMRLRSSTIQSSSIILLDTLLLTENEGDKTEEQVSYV

5-HT2A [5] = test: Ca2+ flux assay, 5-HT2A; format: cell-based, human; settings: Gq/11 Ca2+ mobilization; higher number = skewed towards 5-HT2A
5-HT2B [6] = molecular target: T5, 5-HT2B; test: Ca2+ flux assay, 5-HT2B; format: cell-based; design: expressed in transfected cells; settings: Ca2+ flux; for Emax: read-out: 5-HT2B Emax % 5-HT
5-HT2C [7] = molecular target: T4, 5-HT2C; test: Ca2+ flux assay, 5-HT2C; format: cell-based; design: expressed in transfected cells; settings: for EC50: 5-HT2C EC50, nM; for Emax: read-out: 5-HT2C Emax % 5-HT

T1 sequence (P28223 whole entry): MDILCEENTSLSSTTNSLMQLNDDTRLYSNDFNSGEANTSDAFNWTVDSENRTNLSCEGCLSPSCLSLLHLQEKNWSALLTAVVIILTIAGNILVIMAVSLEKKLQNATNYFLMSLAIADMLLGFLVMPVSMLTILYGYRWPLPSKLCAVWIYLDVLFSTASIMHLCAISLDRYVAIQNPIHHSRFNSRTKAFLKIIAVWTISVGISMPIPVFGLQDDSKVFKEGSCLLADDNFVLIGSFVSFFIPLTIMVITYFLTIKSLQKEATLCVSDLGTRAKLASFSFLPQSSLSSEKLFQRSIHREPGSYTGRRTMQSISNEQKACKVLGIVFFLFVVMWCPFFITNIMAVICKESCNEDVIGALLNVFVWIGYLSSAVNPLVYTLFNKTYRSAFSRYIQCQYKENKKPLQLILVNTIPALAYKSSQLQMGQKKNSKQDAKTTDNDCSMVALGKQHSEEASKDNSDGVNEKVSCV

Row | SMILES | EC50 (5-HT2A [1]; Ca2+ flux) [nM] | Emax (5-HT2A [1]) [%] | Ki (5-HT1A) [nM] | Ki (5-HT1D) [nM] | Ki (5-HT1e) [nM] | Ki (5-HT2A [2]) [nM] | Ki (5-HT1B) [nM] | Ki (5-HT3) [nM] | Ki (5-HT2C [3]) [nM] | Ki (5-HT2B [4]) [nM] | 5-HT2A/5-HT2c Selectivity Factor ΔLog(Emax/EC50) (5-HT2A [5]) | 5-HT2B EC50, nM (5-HT2B [6]) | Emax (5-HT2B [6]) [%] | EC50 (5-HT2C [7]) [nM] | Emax (5-HT2C [7]) [%] | 5-HT2A Emax % 5-HT (5-HT2A [1]; Ca2+ flux) [% 5-HT]
1 | COc1cc([N+](=O)[O-])c(OC)cc1CCNCc1cccc(O)c1 [25N-NB-3-OH (21), 3-({[2-(2,5-dimethoxy-4-nitrophenyl)ethyl]amino}methyl)phenol] | 3.32 | 55 ± 2 | 1860 | > 10000 | > 10000 | 14.5 | > 10000 | > 10000 | 83.2 | 35.5 | 92.6 | No activity | < 10 | 49.1 | 53 ± 4 | 
2 | COc1cc([N+](=O)[O-])c(OC)cc1CCNCc1ccccc1C(F)(F)F [25N-NBCF3 (14), [2-(2,5-dimethoxy-4-nitrophenyl)ethyl]({[2-(trifluoromethyl)phenyl]methyl}) amine] | 12.3 | ≤ 77 | 1070 | > 10000 | > 10000 | 20 | > 10000 | > 10000 | 102 | 58.9 | 85.5 | No activity | < 10 | 271 | 20 ± 2 | 77 ± 1
3 | COc1cc([N+](=O)[O-])c(OC)cc1CCNCc1ccccc1I [25N-NBI (10)] | 3.29 | 88 ± 1 | 1000 | > 10000 | > 10000 | 5.37 | > 10000 | > 10000 | 43.7 | 20 | 406 | No activity | < 10 | 682 | 45 ± 2 | 
